Here are results for 24 compounds from paper PMC5442318, “Hundreds of dual-stage antimalarial molecules discovered by a functional gametocyte screen” (Nature Communications, 2017).

For data set [1], the system named is P. falciparum stage V female gametocytes. The data set can be described thus: P. falciparum female gametocyte activation assay (Pf FGAA), 24 h or 48 h preincubation, Pfs25 expression readout. The format is cell-based, Plasmodium falciparum NF54. As to conditions: P. falciparum female gametocytes; mean; read-out: Gametocytes mean Pf FGAA IC50. A digest of the protocol: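 Female activation, triggered by xanthurenic acid and cooling, was scored by imaging Cy3-labelled anti-Pfs25 female gametes after 24 h at 26 °C. Beforehand, purified NF54 stage V gametocytes had been incubated with compound for either 24 h or 48 h (37 °C, 3% O2). Values are pIC50 from full-curve regression.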

The test system of data set [2] is P. falciparum stages IV–V gametocytes. The data set can be described thus: Gametocytocidal ATP-depletion assay (gametocyte ATP bioluminescence). The format is cell-based, Plasmodium falciparum. The procedure, abridged:
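Read-out is luciferase luminescence of parasite ATP (BacTiter-Glo), standing in for viability. Double-purified mature stage IV–V gametocytes, 12,500 per well, were exposed 48 h at 37 °C in low-O2 gas; screening concentration 2 μM.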

The subject of the next data set is HepG2 cells. Nature of the data set: HepG2 cytotoxicity assay. The format is cell-based. The conditions noted are these: HepG2 cells; mean. The procedure, abridged: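 Cell viability is measured by CellTiter-Glo luminescence. Signal is developed at room temperature and read 10 min after adding the reagent, with plates and reagent first equilibrated for 30 min.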

Data set [3] has as its system P. falciparum asexual blood stages. As to conditions: TCAMS asexual blood stage data; ref 1 (Gamo, F. J. et al., Nature 465, 305-310, 2010); read-out: Pf Asexual blood stages XC50; cited from earlier work.

As to `FC(F)(F)c1ccc2[nH]c(-c3cccc(-c4cccc(CNCCN5CCNCC5)c4)c3)nc2c1.O=C(O)C(F)(F)F` [TCMDC-132871], the IC50 was 1220 nM in data set [1] and 940 nM in data set [3]. Moreover, the “Gametocytes mean ATP inhibition at 2µM” value in data set [2] is given as 0.88%. In the data set on HepG2 cells, the “HepG2 cells mean TOX50” value was 6.61 µM.

`FC(F)(F)c1ccc2[nH]c(-c3cccc(-c4ccc(CNCCN5CCNCC5)cc4)c3)nc2c1.O=C(O)C(F)(F)F` [TCMDC-132872]: the IC50 was 1790 nM in data set [1] and 860 nM in data set [3]. Moreover, the “Gametocytes mean ATP inhibition at 2µM” value in data set [2] is -15.41%. In addition, in the data set with HepG2 cells, the “HepG2 cells mean TOX50” value is 8.81 µM.

Turning to `CCCN(CC1CC1)c1ncc(-c2cccc(CNCCC3CCCN3C)c2)cn1` (stereo not drawn) [TCMDC-133142], the IC50 in data set [1] is 2180 nM; in data set [3] it was 750 nM. The “Gametocytes mean ATP inhibition at 2µM” value in data set [2] stood at 6.70%. Also, the “HepG2 cells mean TOX50” value in the data set on HepG2 cells was 3.09 µM.

Turning to `CN(CCc1ccccc1)c1ncc(-c2cccc(CNCCC3CCCN3C)c2)cn1` (stereo not drawn) [TCMDC-133143], the IC50 was 1360 nM in data set [1] and 870 nM in data set [3]. Further, in data set [2], the “Gametocytes mean ATP inhibition at 2µM” value came out at 11.85%. Further, the “HepG2 cells mean TOX50” value with HepG2 cells worked out at 2.88 µM.

For `CN1CCCC1CCNCc1cccc(-c2cnc(N3CCCC(C)(C)C3)nc2)c1` (stereo not drawn) [TCMDC-133144], the IC50 was 1670 nM in data set [1] and 930 nM in data set [3]. The “Gametocytes mean ATP inhibition at 2µM” value in data set [2] is on record as 3.15%. For the same compound, the “HepG2 cells mean TOX50” value in the data set with HepG2 cells worked out at 4.63 µM.

As for `O=C(Nc1cccc(-c2cccc(-c3nc4cc(C(F)(F)F)ccc4[nH]3)c2)c1)Nc1ccc(F)c(F)c1F` [TCMDC-133229], the IC50 is 1400 nM in data set [1] and 120 nM in data set [3]. The “Gametocytes mean ATP inhibition at 2µM” value in data set [2] is listed as -42.33%. The “HepG2 cells mean TOX50” value in the data set on HepG2 cells is given as 3.43 µM.

With `COc1cc(-c2cc(-c3ccc(S(C)(=O)=O)cc3)cnc2N)ccc1O` [TCMDC-133343], the IC50 is 390 nM in data set [1] and 100 nM in data set [3]. In addition, the “Gametocytes mean ATP inhibition at 2µM” value in data set [2] came out at 57.72%. The “HepG2 cells mean TOX50” value in the data set with HepG2 cells was found to be 41.69 µM.

With `COc1ccccc1C1CCN(C2CCC(NC(=O)c3ccc4[nH]c(-c5ccc(C)cc5)nc4c3)CC2)CC1` (stereo not drawn) [TCMDC-133556], the IC50 in data set [1] is 2490 nM; in data set [3], 310 nM. For the same compound, the “Gametocytes mean ATP inhibition at 2µM” value in data set [2] is recorded as 22.02%. In addition, in the data set on HepG2 cells, the “HepG2 cells mean TOX50” value was determined as 3.99 µM.

`CN1CCC(N2CCN(Cc3cccc(-c4ccc(-c5nc6cc(C(F)(F)F)ccc6[nH]5)cc4)c3)CC2)CC1.O=C(O)C(F)(F)F` [TCMDC-133842]: the IC50 in data set [1] is 1090 nM; in data set [3] it was 140 nM. Further, in data set [2], the “Gametocytes mean ATP inhibition at 2µM” value was found to be 4.02%. For the same compound, the “HepG2 cells mean TOX50” value with HepG2 cells was found to be 2.44 µM.

On to `CN1CCCC(CN2CCN(Cc3cccc(-c4ccc(-c5nc6cc(C(F)(F)F)ccc6[nH]5)cc4)c3)CC2)C1.O=C(O)C(F)(F)F` (stereo not drawn) [TCMDC-133882], for which the IC50 in data set [1] was 1300 nM; in data set [3] it was 150 nM. The “Gametocytes mean ATP inhibition at 2µM” value in data set [2] is recorded as 1.53%. The “HepG2 cells mean TOX50” value in the data set on HepG2 cells worked out at 4.07 µM.

Take `O=C(O)C(F)(F)F.c1cc(CN2CCC(CCN3CCCCC3)CC2)cc(-c2csc(-c3nc4ccccc4[nH]3)c2)c1` [TCMDC-133919]: the IC50 is 2110 nM in data set [1] and 140 nM in data set [3]. Besides, the “Gametocytes mean ATP inhibition at 2µM” value in data set [2] came to 3.61%. Further, the “HepG2 cells mean TOX50” value in the data set with HepG2 cells came to 6.04 µM.

As for `Fc1ccc2[nH]c(-c3ccc(-c4ccc(CN5CCC(CCN6CCCCC6)CC5)cc4)cc3)nc2c1.O=C(O)C(F)(F)F` [TCMDC-133924], the values for the IC50 in data set [1] and in data set [3] were 1700 nM and 130 nM, respectively. Moreover, in data set [2], the “Gametocytes mean ATP inhibition at 2µM” value is 11.89%. Further, in the data set with HepG2 cells, the “HepG2 cells mean TOX50” value is on record as 3.94 µM.

Consider `Fc1ccc2[nH]c(-c3cccc(-c4ccc(CN5CCC(CCN6CCCCC6)CC5)cc4)c3)nc2c1.O=C(O)C(F)(F)F` [TCMDC-133940], for which the results for the IC50 in data set [1] and in data set [3] were 1880 nM and 140 nM, respectively. For the same compound, the “Gametocytes mean ATP inhibition at 2µM” value in data set [2] is on record as -4.48%. In addition, the “HepG2 cells mean TOX50” value with HepG2 cells is given as 4.79 µM.

On to `FC(F)(F)c1ccc2[nH]c(-c3ccc(-c4cccc(CN5CCC(CCN6CCCCC6)CC5)c4)cc3)nc2c1.O=C(O)C(F)(F)F` [TCMDC-133941], for which the IC50 is 1260 nM in data set [1] and 150 nM in data set [3]. In data set [2], the “Gametocytes mean ATP inhibition at 2µM” value is -7.71%. Also, the “HepG2 cells mean TOX50” value in the data set with HepG2 cells amounted to 4.45 µM.

For `Cn1c(Nc2cc(C(C)(C)C)on2)nc2cc(Nc3ccnc(Nc4cccc(S(=O)(=O)N5CCOCC5)c4)n3)ccc21` [TCMDC-134098], the IC50 in data set [1] was 1190 nM; in data set [3] it was 530 nM. Besides, the “Gametocytes mean ATP inhibition at 2µM” value in data set [2] is given as 17.18%. In addition, the “HepG2 cells mean TOX50” value in the data set on HepG2 cells is 8.13 µM.

Regarding `Cc1cc(Nc2ncc(C#N)c(Nc3ccccc3C(N)=O)n2)ccc1N1CCN(C)CC1.Cl` [TCMDC-134115], the results for the IC50 in data set [1] and in data set [3] were 1670 nM and 9 nM, respectively. Besides, in data set [2], the “Gametocytes mean ATP inhibition at 2µM” value turned out to be 20.18%. In addition, the “HepG2 cells mean TOX50” value in the data set with HepG2 cells was determined as 0.40 µM.

In the case of `Cc1n[nH]c2ccc(-c3ccc4nccc(N5CCC(N)CC5)c4c3)cc12.Cl` [TCMDC-134315], the IC50 is 2450 nM in data set [1] and 590 nM in data set [3]. The “Gametocytes mean ATP inhibition at 2µM” value in data set [2] turned out to be 71.38%. The “HepG2 cells mean TOX50” value in the data set with HepG2 cells is recorded as 6.88 µM.

On to `CC(C)c1ccc(CN2CCC(CNC(=O)c3cc(-c4cccc(C(F)(F)F)c4)cs3)C2)cc1.O=C(O)C(F)(F)F` (stereo not drawn) [TCMDC-134435], for which the results for the IC50 in data set [1] and in data set [3] were 1300 nM and 910 nM, respectively. Further, the “Gametocytes mean ATP inhibition at 2µM” value in data set [2] is -4.54%. Besides, in the data set with HepG2 cells, the “HepG2 cells mean TOX50” value is reported as 5.13 µM.

`CC(C)c1ccc(CN2CCC(CNC(=O)c3cc(-c4ccccc4F)cs3)C2)cc1.O=C(O)C(F)(F)F` (stereo not drawn) [TCMDC-134436]: the IC50 in data set [1] was 1080 nM; in data set [3] it was 990 nM. Further, the “Gametocytes mean ATP inhibition at 2µM” value in data set [2] is on record as -11.71%. Also, the “HepG2 cells mean TOX50” value in the data set with HepG2 cells stood at 9.14 µM.

For the compound `CC(C)c1ccc(CN2CCC(CNC(=O)c3cc(-c4cccc(F)c4)cs3)C2)cc1.O=C(O)C(F)(F)F` (stereo not drawn) [TCMDC-134437], the IC50 was 1370 nM in data set [1] and 1660 nM in data set [3]. The “Gametocytes mean ATP inhibition at 2µM” value in data set [2] is given as 7.50%. Further, the “HepG2 cells mean TOX50” value in the data set on HepG2 cells is recorded as 6.24 µM.

Turning to `CC(C)c1ccc(CN2CCC(CNC(=O)c3cc(-c4cccc(Cl)c4)cs3)C2)cc1.O=C(O)C(F)(F)F` (stereo not drawn) [TCMDC-134438], the values for the IC50 in data set [1] and in data set [3] were 600 nM and 750 nM, respectively. In data set [2], the “Gametocytes mean ATP inhibition at 2µM” value is -9.36%. In the data set on HepG2 cells, the “HepG2 cells mean TOX50” value is 6.53 µM.

Consider `CC(C)c1ccc(CN2CCC(CNC(=O)c3cc(-c4ccc(N(C)C)cc4)cs3)C2)cc1.O=C(O)C(F)(F)F` (stereo not drawn) [TCMDC-134440], for which the IC50 in data set [1] was 710 nM; in data set [3], 1250 nM. The “Gametocytes mean ATP inhibition at 2µM” value in data set [2] was -6.60%. In addition, in the data set on HepG2 cells, the “HepG2 cells mean TOX50” value was 5.85 µM.

For `CC(C)(C)c1ccc(CN2CCC(CNC(=O)c3cc(-c4ccccc4C(F)(F)F)cs3)C2)cc1.O=C(O)C(F)(F)F` (stereo not drawn) [TCMDC-134441], the IC50 in data set [1] was 690 nM; in data set [3], 1240 nM. The “Gametocytes mean ATP inhibition at 2µM” value in data set [2] is reported as -17.21%. Also, in the data set with HepG2 cells, the “HepG2 cells mean TOX50” value amounted to 9.77 µM.

Turning to `CC(C)(C)c1ccc(CN2CCC(CNC(=O)c3cc(-c4cccc(C(F)(F)F)c4)cs3)C2)cc1.O=C(O)C(F)(F)F` (stereo not drawn) [TCMDC-134442], the results for the IC50 in data set [1] and in data set [3] were 950 nM and 1030 nM, respectively. Moreover, the “Gametocytes mean ATP inhibition at 2µM” value in data set [2] is -16.04%. Further, the “HepG2 cells mean TOX50” value with HepG2 cells was 6.39 µM.
